Legend:
[1] = xn = mol fraction of the nth substance listed; settings: 101 kPa, Liquid; for speed of sound: Sing-around technique in a fixed-path interferometer; for mass density: Vibrating tube method
[2] = refractive index (Na D-line) (dimensionless); xn = mol fraction of the nth substance listed; settings: 101 kPa, Liquid, Standard Abbe refractometry

CCC[N+]1(C)CCCC1.O=S(=O)([N-]S(=O)(=O)C(F)(F)F)C(F)(F)F + CCO
Settings | mass density, 298.15 K [kg/m3] | mass density, 303.15 K [kg/m3] | mass density, 308.15 K [kg/m3] | refractive index, 298.15 K | refractive index, 303.15 K | refractive index, 308.15 K | speed of sound, 298.15 K [m/s] | speed of sound, 303.15 K [m/s] | speed of sound, 308.15 K [m/s]
[1], x2 = 0 | 1427.86 | 1423.26 | 1418.83 | – | – | – | 1270.6 | 1259.5 | 1248.6
[1], x2 = 0.016 | 1425.68 | 1421.16 | 1416.65 | – | – | – | 1269.2 | 1258.2 | 1247.2
[1], x2 = 0.0703 | 1418.06 | 1413.56 | 1409.05 | – | – | – | 1266.3 | 1255.2 | 1244.3
[1], x2 = 0.0986 | 1413.89 | 1409.36 | 1404.83 | – | – | – | 1264.6 | 1253 | 1242.6
[1], x2 = 0.2816 | 1380.66 | 1376.07 | 1371.48 | – | – | – | 1252.4 | 1241.1 | 1229.9
[1], x2 = 0.4082 | 1349.44 | 1344.8 | 1340.16 | – | – | – | 1241 | 1229.5 | 1218.2
[1], x2 = 0.5143 | 1315.09 | 1310.32 | 1305.65 | – | – | – | 1228.8 | 1217.2 | 1205.7
[1], x2 = 0.6077 | 1275.55 | 1270.84 | 1266.14 | – | – | – | 1215.8 | 1203.9 | 1192.1
[1], x2 = 0.7059 | 1219.23 | 1214.5 | 1209.77 | – | – | – | 1198.4 | 1186.2 | 1174
[1], x2 = 0.8034 | 1138.92 | 1134.21 | 1129.48 | – | – | – | 1177.6 | 1164.7 | 1151.9
[1], x2 = 0.9002 | 1015 | 1010.37 | 1005.72 | – | – | – | 1155 | 1140.9 | 1127
[1], x2 = 0.9468 | 927.02 | 922.49 | 917.93 | – | – | – | 1146.8 | 1131.8 | 1117
[2], x2 = 0 | – | – | – | 1.42064 | 1.41926 | 1.41782 | – | – | –
[2], x2 = 0.016 | – | – | – | 1.42045 | 1.41907 | 1.41766 | – | – | –
[2], x2 = 0.0703 | – | – | – | 1.41973 | 1.41834 | 1.4169 | – | – | –
[2], x2 = 0.0986 | – | – | – | 1.41935 | 1.41789 | 1.41649 | – | – | –
[2], x2 = 0.2816 | – | – | – | 1.41621 | 1.41485 | 1.41339 | – | – | –
[2], x2 = 0.4082 | – | – | – | 1.41338 | 1.412 | 1.41052 | – | – | –
[2], x2 = 0.5143 | – | – | – | 1.41021 | 1.40877 | 1.40732 | – | – | –
[2], x2 = 0.6077 | – | – | – | 1.40661 | 1.40521 | 1.40398 | – | – | –
[2], x2 = 0.7059 | – | – | – | 1.40144 | 1.39995 | 1.39878 | – | – | –
[2], x2 = 0.8034 | – | – | – | 1.39395 | 1.39236 | 1.39104 | – | – | –
[2], x2 = 0.9002 | – | – | – | 1.38228 | 1.38064 | 1.37888 | – | – | –
[2], x2 = 0.9468 | – | – | – | 1.37383 | 1.372 | 1.37027 | – | – | –
